Results from PubChem BioAssay AID2060489 (Molecular Pharmacology Branch, DTP, NCI, 2025).
pIC50: −log10 of the molar value.

Tested on: 922993-354-T-J3-PDC complex spheroids, viability
Experiment: Anticancer human tumor 922993-354-T-J3-PDC patient-derived endometrial carcinoma cell line growth inhibition [GQUAD]
Conditions: for pIC50: curve of first compound; for viability, T/C: stronger effect = lower value
Outline: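 Tumor cells were grown as complex spheroids with HUVEC endothelial cells and mesenchymal stem cells as stroma. G-quadruplex stabilizers were combined with targeted agents over half-log dilutions from near the clinical Cmax, or from 10 microM.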

[1] = second compound 0.0316 µM, first compound 0.0316 µM
[2] = second compound 0.0316 µM, first compound 0.316 µM
[3] = second compound 0.1 µM, first compound 0.0316 µM
[4] = second compound 0.1 µM, first compound 0.316 µM
[5] = second compound 0.316 µM, first compound 0.0316 µM
[6] = second compound 0.316 µM, first compound 0.316 µM
[7] = second compound 1 µM, first compound 0.0316 µM
[8] = second compound 1 µM, first compound 0.316 µM
[9] = second compound 3.16 µM, first compound 0.0316 µM
[10] = second compound 3.16 µM, first compound 0.316 µM
[11] = second compound 10 µM, first compound 0.0316 µM
[12] = second compound 10 µM, first compound 0.316 µM
[13] = second compound 0.0316 µM, first compound 0.1 µM
[14] = second compound 0.0316 µM, first compound 1 µM
[15] = second compound 0.0316 µM, first compound 3.16 µM
[16] = second compound 0.0316 µM, first compound 10 µM
[17] = second compound 0.1 µM, first compound 0.1 µM
[18] = second compound 0.1 µM, first compound 1 µM
[19] = second compound 0.1 µM, first compound 3.16 µM
[20] = second compound 0.1 µM, first compound 10 µM
[21] = second compound 0.316 µM, first compound 0.1 µM
[22] = second compound 0.316 µM, first compound 1 µM
[23] = second compound 0.316 µM, first compound 3.16 µM
[24] = second compound 0.316 µM, first compound 10 µM
[25] = second compound 1 µM, first compound 0.1 µM
[26] = second compound 1 µM, first compound 1 µM
[27] = second compound 1 µM, first compound 3.16 µM
[28] = second compound 1 µM, first compound 10 µM
[29] = second compound 3.16 µM, first compound 0.1 µM
[30] = second compound 3.16 µM, first compound 1 µM
[31] = second compound 3.16 µM, first compound 3.16 µM
[32] = second compound 3.16 µM, first compound 10 µM
[33] = second compound 10 µM, first compound 0.1 µM
[34] = second compound 10 µM, first compound 1 µM
[35] = second compound 10 µM, first compound 3.16 µM
[36] = second compound 10 µM, first compound 10 µM
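Also: spheroids exposed to compounds for seven days.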
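For viability, T/C in this document: 100% = DMSO vehicle control viability.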

`CCc1c2c(nc3ccc(O)cc13)-c1cc3c(c(=O)n1C2)COC(=O)[C@]3(O)CC` + CN(C)c1ccc(Nc2c3ccc(NC(=O)CCN4CCCC4)cc3nc3cc(NC(=O)CCN4CCCC4)ccc23)cc1 was tested, and the pIC50 (second compound 0.0316 µM) was 8.19, the pIC50 (second compound 0.1 µM) was 8.16 and the pIC50 (second compound 0.316 µM) was 8.21. The pIC50 (second compound 1 µM) was 8.19, the pIC50 (second compound 3.16 µM) was 8.17 and the pIC50 (second compound 10 µM) was 8.05. For the same compound, the viability, T/C (second compound 0.0316 µM, first compound 0.000999 µM) was 99.2%, the viability, T/C (second compound 0.0316 µM, first compound 0.00316 µM) was 78.4% and the viability, T/C (second compound 0.0316 µM, first compound 0.00999 µM) was 34.1%. For the same compound, the viability, T/C [1] was 10.4%, the viability, T/C (second compound 0.0316 µM, first compound 0.0999 µM) was 10.1% and the viability, T/C [2] was 20.1%. The viability, T/C (second compound 0.1 µM, first compound 0.000999 µM) was 96.4%, the viability, T/C (second compound 0.1 µM, first compound 0.00316 µM) was 94.1% and the viability, T/C (second compound 0.1 µM, first compound 0.00999 µM) was 30%. It also gave a viability, T/C [3] of 7.58%, a viability, T/C (second compound 0.1 µM, first compound 0.0999 µM) of 12% and a viability, T/C [4] of 16.8%. The viability, T/C (second compound 0.316 µM, first compound 0.000999 µM) was 90.6%, the viability, T/C (second compound 0.316 µM, first compound 0.00316 µM) was 74.3% and the viability, T/C (second compound 0.316 µM, first compound 0.00999 µM) was 32.5%. For the same compound, the viability, T/C [5] was 9.44%, the viability, T/C (second compound 0.316 µM, first compound 0.0999 µM) was 12.3% and the viability, T/C [6] was 13.8%. For the same compound, the viability, T/C (second compound 1 µM, first compound 0.000999 µM) was 96%, the viability, T/C (second compound 1 µM, first compound 0.00316 µM) was 77.5% and the viability, T/C (second compound 1 µM, first compound 0.00999 µM) was 34.4%. The viability, T/C [7] was 12.8%, the viability, T/C (second compound 1 µM, first compound 0.0999 µM) was 11.8% and the viability, T/C [8] was 17.7%. The viability, T/C (second compound 3.16 µM, first compound 0.000999 µM) was 96.7%, the viability, T/C (second compound 3.16 µM, first compound 0.00316 µM) was 79.8% and the viability, T/C (second compound 3.16 µM, first compound 0.00999 µM) was 36.3%. It also gave a viability, T/C [9] of 11.4%, a viability, T/C (second compound 3.16 µM, first compound 0.0999 µM) of 12.9% and a viability, T/C [10] of 20.6%. For the same compound, the viability, T/C (second compound 10 µM, first compound 0.000999 µM) was 111%, the viability, T/C (second compound 10 µM, first compound 0.00316 µM) was 89.1% and the viability, T/C (second compound 10 µM, first compound 0.00999 µM) was 49.3%. The viability, T/C [11] was 14.4%, the viability, T/C (second compound 10 µM, first compound 0.0999 µM) was 17.4% and the viability, T/C [12] was 23.3%.

Work on `CC1COCCN1c1cc(C2(S(C)(=N)=O)CC2)nc(-c2ccnc3[nH]ccc23)n1` (stereo unspecified) + Cc1[nH]c2ccc(F)cc2c1-c1nc2c3cccnc3c3ncccc3c2[nH]1 yielded a pIC50 (second compound 0.0316 µM) of less than 5.00, a pIC50 (second compound 0.1 µM) of less than 5.00 and a pIC50 (second compound 0.316 µM) of less than 5.00. It also gave a pIC50 (second compound 1 µM) of less than 5.00, a pIC50 (second compound 3.16 µM) of less than 5.00 and a pIC50 (second compound 10 µM) of less than 5.00. The viability, T/C [1] was 103%, the viability, T/C [13] was 96.9% and the viability, T/C [2] was 110%. The viability, T/C [14] was 83.9%, the viability, T/C [15] was 114% and the viability, T/C [16] was 60.6%. The viability, T/C [3] was 110%, the viability, T/C [17] was 107% and the viability, T/C [4] was 138%. For the same compound, the viability, T/C [18] was 132%, the viability, T/C [19] was 106% and the viability, T/C [20] was 67.5%. The viability, T/C [5] was 135%, the viability, T/C [21] was 117% and the viability, T/C [6] was 109%. For the same compound, the viability, T/C [22] was 124%, the viability, T/C [23] was 79.6% and the viability, T/C [24] was 67%. For the same compound, the viability, T/C [7] was 118%, the viability, T/C [25] was 106% and the viability, T/C [8] was 109%. The viability, T/C [26] was 106%, the viability, T/C [27] was 106% and the viability, T/C [28] was 80.1%. The viability, T/C [9] was 92.3%, the viability, T/C [29] was 124% and the viability, T/C [10] was 87.2%. For the same compound, the viability, T/C [30] was 104%, the viability, T/C [31] was 88.8% and the viability, T/C [32] was 81.4%. It also gave a viability, T/C [11] of 138%, a viability, T/C [33] of 104% and a viability, T/C [12] of 128%. The viability, T/C [34] was 96.3%, the viability, T/C [35] was 101% and the viability, T/C [36] was 89%.

`C=CC(=O)N1CCN(c2nc(=O)n(-c3c(C)ccnc3C(C)C)c3nc(-c4c(O)cccc4F)c(F)cc23)C(C)C1` (stereo unspecified) + CN(C)c1ccc(Nc2c3ccc(NC(=O)CCN4CCCC4)cc3nc3cc(NC(=O)CCN4CCCC4)ccc23)cc1 showed a pIC50 (second compound 0.0316 µM) of less than 5.00, a pIC50 (second compound 0.1 µM) of less than 5.00 and a pIC50 (second compound 0.316 µM) of less than 5.00. The pIC50 (second compound 1 µM) was less than 5.00, the pIC50 (second compound 3.16 µM) was less than 5.00 and the pIC50 (second compound 10 µM) was less than 5.00. It also gave a viability, T/C [1] of 96.9%, a viability, T/C [13] of 84.8% and a viability, T/C [2] of 102%. For the same compound, the viability, T/C [14] was 104%, the viability, T/C [15] was 97% and the viability, T/C [16] was 119%. The viability, T/C [3] was 109%, the viability, T/C [17] was 109% and the viability, T/C [4] was 112%. For the same compound, the viability, T/C [18] was 94.5%, the viability, T/C [19] was 128% and the viability, T/C [20] was 109%. The viability, T/C [5] was 112%, the viability, T/C [21] was 120% and the viability, T/C [6] was 96.7%. The viability, T/C [22] was 128%, the viability, T/C [23] was 103% and the viability, T/C [24] was 104%. For the same compound, the viability, T/C [7] was 111%, the viability, T/C [25] was 118% and the viability, T/C [8] was 99.6%. The viability, T/C [26] was 125%, the viability, T/C [27] was 117% and the viability, T/C [28] was 120%. It also gave a viability, T/C [9] of 107%, a viability, T/C [29] of 128% and a viability, T/C [10] of 107%. The viability, T/C [30] was 139%, the viability, T/C [31] was 137% and the viability, T/C [32] was 117%. It also gave a viability, T/C [11] of 115%, a viability, T/C [33] of 140% and a viability, T/C [12] of 142%. The viability, T/C [34] was 137%, the viability, T/C [35] was 153% and the viability, T/C [36] was 142%.
